Assay results as given in US20230265104A1, “NOVEL HETEROCYCLIC COMPOUNDS” (PRISM BIOLAB CO., LTD., priority 2020, published 2023).

System: PANC-1 (human pancreatic cancer-derived cell line)
Assay: MTS assay on Panc-1 (human pancreas carcinoma cell line)
Format: cell-based
Conditions: 144 h; for IC50: PANC-1, MTS method, cell survival 6 days after exposure, 4-parameter logistic fit; for inhibition at 30 µM / inhibition at 0.625 µM / inhibition at 1 µM / inhibition at 10 µM: PANC-1, MTS, 6 days; for inhibition at 30 µM: read-out: Growth inhibition (%) 30 μM; for inhibition at 0.625 µM: read-out: Growth inhibition (%) 0.625 μM; for inhibition at 1 µM: read-out: Growth inhibition (%) 1 μM; for inhibition at 10 µM: read-out: Growth inhibition (%) 10 μM
Protocol: Experimental Example: MTS Assay on Panc-1 (Human Pancreas Carcinoma Cell Line) cell line name: PANC-1 derived from: human pancreas glandular cancer purchased from: ATCC product code: CRL-1469 proliferation medium: D-MEM+10% FBS culture environment: 37° C., 5% CO2 seeding density: 5.0×10^5 cells/25 cm^2 solvent control substance: DMSO (HYBRI-MAX®, Sigma-Aldrich Corp.) test substance: Example compound (ID-1-ID-13) A DMSO solution of the test substance was prepared by serially diluting (common ratio 2) each test substance with DMSO.
A solvent control substance sample and a test substance sample were exposed to a human pancreatic cancer-derived cell line (PANC-1), and the survival rate of the cell 6 days later was measured by the MTS method. The measurement was performed 3 times and the average thereof was adopted. The survival rate of the cell in each test substance sample was calculated by the following formula 1 with the value at exposure of the solvent control substance sample as 100% survival rate. […]
survival rate (%)=100×absorbance of each test substance sample/absorbance of solvent control substance sample formula 1 Normalized values calculated by the following formula 2 from the absorbances of each sample at 492 nm and 630 nm and the absorbances of the blank were used as the absorbances in the above-mentioned formula 1. […]
normalized value (ABS492 nm-630 nm)=(ABSsa 492 nm-ABSsa 630 nm)−(ABSbl 492 nm-ABSbl 630 nm) ABSsa 492: absorbance of each sample at wavelength 492 nm ABSsa 630: absorbance of each sample at wavelength 630 nm ABSbl 492: absorbance of blank corresponding to each sample at wavelength 492 nm ABSbl 630: absorbance of blank corresponding to each sample at wavelength 630 nm formula 2 […]
The analysis was performed by using nplr package on R (The R Foundation for Statistical Computing) and estimating the logistic regression curve (4-parameter).

Compound | IC50 | inhibition at 30 µM | inhibition at 0.625 µM | inhibition at 1 µM | inhibition at 10 µM
CC(C)C[C@H]1ON(C(=O)/C=C/c2nn(C)c3ccccc23)[C@H]2CN(CCC(N)=O)C(=O)[C@H](CC(C)C)N2C1=O [ID-22, 3-((3R,6S,9aS)-3,6-diisobutyl-1-((E)-3-(1-methyl-1H-indazol-3-yl)acryloyl)-4,7-dioxohexahydropyrazino[2,1-c][1,2,4]oxadiazin-8(1H)-yl)propanamide] | 15.6 µM | 95.4% | – | – | –
CC(C)C[C@H]1ON(C(=O)/C=C/c2nc3ccccc3s2)[C@H]2CN(CCC(N)=O)C(=O)[C@H](CC(C)C)N2C1=O [ID-23, 3-((3R,6S,9aS)-1-((E)-3-(benzo[d]thiazol-2-yl)acryloyl)-3,6-diisobutyl-4,7-dioxohexahydropyrazino[2,1-c][1,2,4]oxadiazin-8(1H)-yl)propanamide] | 0.77 µM | 102% | – | – | –
CC(C)C[C@H]1ON(C(=O)/C=C/c2ccc3ccccc3c2)[C@H]2CN(CCC(N)=O)C(=O)[C@H](CC(C)C)N2C1=O [ID-24, 3-((3R,6S,9aS)-3,6-diisobutyl-1-((E)-3-(naphthalen-2-yl)acryloyl)-4,7-dioxohexahydropyrazino[2,1-c] [1,2,4]oxadiazin-8(1H)-yl)propanamide] | 15.8 µM | 102% | – | – | –
CC(C)(C)C[C@H]1C(=O)N(CC2CCCCC2)C[C@@H]2N(C(=O)/C=C/c3cnc4ccccc4n3)O[C@H](CC3CCCCC3)C(=O)N21 [ID-25, (3R,6S,9aS)-3,8-bis(cyclohexylmethyl)-6-neopentyl-1-((E)-3-(quinoxalin-2-yl)acryloyl)tetrahydropyrazino[2,1-c] [1,2,4]oxadiazine-4,7(3H,6H)-dione] | – | 98.5% | 4.7% | 6% | –
CC(C)(C)C[C@H]1C(=O)N(CC2CCNCC2)C[C@@H]2N(C(=O)/C=C/c3cnc4ccccc4n3)O[C@H](CC3CCCCC3)C(=O)N21 [ID-26, (3R,6S,9aS)-3-(cyclohexylmethyl)-6-neopentyl-8-(piperidin-4-ylmethyl)-1-((E)-3-(quinoxalin-2-yl)acryloyl)tetrahydropyrazino[2,1-c][1,2,4]oxadiazine-4,7(3H,6H)-dione] | – | – | 4.2% | 96.1% | –
CC(C)C[C@H]1ON(C(=O)/C=C/c2ccccn2)[C@H]2CN(CCC(=O)Nc3nccs3)C(=O)[C@H](CC(C)C)N2C1=O [ID-27, 3-((3R,6S,9aS)-3,6-diisobutyl-4,7-dioxo-1-((E)-3-(pyridin-2-yl)acryloyl)hexahydropyrazino[2,1-c][1,2,4]oxadiazin-8 (1H)-yl)—N-(thiazol-2-yl)propanamide] | 8.6 µM | 99.3% | – | – | –
CONC(=O)CCN1C[C@@H]2N(C(=O)/C=C/c3ccccn3)O[C@H](CC(C)C)C(=O)N2[C@@H](CC(C)C)C1=O [ID-28, 3-((3R,6S,9aS)-3,6-diisobutyl-4,7-dioxo-1-((E)-3-(pyridin-2-yl)acryloyl)hexahydropyrazino[2,1-c][1,2,4]oxadiazin-8(1H)-yl)—N-methoxypropanamide] | 16.2 µM | 96.2% | – | – | –
CC(C)C[C@H]1ON(C(=O)/C=C/c2nnc(C3CC3)s2)[C@H]2CN(CCC(N)=O)C(=O)[C@H](CC(C)C)N2C1=O [ID-29, 3-((3R,6S,9aS)-1-((E)-3-(5-cyclopropyl-1,3,4-thiadiazol-2-yl)acryloyl)-3,6-diisobutyl-4,7-dioxohexahydropyrazino[2,1-c][1,2,4]oxadiazin-8(1H)-yl)propanamide] | 2.3 µM | – | – | – | 101%
CC(C)C[C@H]1ON(C(=O)/C=C/c2cccc3nccnc23)[C@H]2CN(CCC(N)=O)C(=O)[C@H](CC(C)C)N2C1=O [ID-30, 3-((3R,6S,9aS)-3,6-diisobutyl-4,7-dioxo-1-((E)-3-(quinoxalin-5-yl)acryloyl)hexahydropyrazino[2,1-c][1,2,4]oxadiazin-8 (1H)-yl)propanamide] | – | – | – | – | 58.4%
CC(C)C[C@H]1ON(C(=O)/C=C/c2ccc3cccnc3n2)[C@H]2CN(CCC(N)=O)C(=O)[C@H](CC(C)C)N2C1=O [ID-31, 3-((3R,6S,9aS)-1-((E)-3-(1,8-naphthyridin-2-yl)acryloyl)-3,6-diisobutyl-4,7-dioxohexahydropyrazino[2,1-c][1,2,4]oxadiazin-8(1H)-yl)propanamide] | 2.7 µM | – | – | – | 99.3%
CC(C)C[C@H]1ON(C(=O)/C=C/c2nc3cccnc3s2)[C@H]2CN(CCC(N)=O)C(=O)[C@H](CC(C)C)N2C1=O [ID-32, 3-((3R,6S,9aS)-3,6-diisobutyl-4,7-dioxo-1-((E)-3-(thiazolo[5,4-b]pyridin-2-yl)acryloyl)hexahydropyrazino[2,1-c][1,2,4]oxadiazin-8(1H)-yl)propanamide] | 0.62 µM | – | – | – | 101%
CCOC(=O)c1cnc(/C=C/C(=O)N2O[C@H](CC(C)C)C(=O)N3[C@@H]2CN(CCC(N)=O)C(=O)[C@@H]3CC(C)C)s1 [ID-33, ethyl 2-((E)-3-((3R,6S,9aS)-8-(3-amino-3-oxopropyl)-3,6-diisobutyl-4,7-dioxohexahydropyrazino[2,1-c][1,2,4]oxadiazin-1(6H)-yl)-3-oxoprop-1-en-1-yl)thiazole-5-carboxylate] | 1.1 µM | – | – | – | 99.9%
Cc1nc(/C=C/C(=O)N2O[C@H](CC(C)C)C(=O)N3[C@@H]2CN(CCC(N)=O)C(=O)[C@@H]3CC(C)C)sc1C [ID-34, 3-((3R,6S,9aS)-1-((E)-3-(4,5-dimethylthiazol-2-yl)acryloyl)-3,6-diisobutyl-4,7-dioxohexahydropyrazino[2,1-c][1,2,4]oxadiazin-8(1H)-yl)propanamide] | 2.6 µM | – | – | – | 95.5%
CC(C)C[C@H]1CN(CCCN(C)C2CCN(C)CC2)C[C@@H]2N(C(=O)/C=C/c3ccccn3)O[C@H](CC(C)C)C(=O)N12 [ID-35, (3R,6S,9aS)-3,6-diisobutyl-8-(3-(methyl(1-methylpiperidin-4-yl)amino)propyl)-1-((E)-3-(pyridin-2-yl)acryloyl)hexahydropyrazino[2,1-c][1,2,4]oxadiazin-4(3H)-one] | 5 µM | – | – | – | 99%
CC(C)C[C@H]1ON(C(=O)/C=C/c2ccccn2)[C@H]2CN(C3CCN(Cc4ncccn4)CC3)C(=O)[C@H](CC(C)C)N2C1=O [ID-36, (3R,6S,9aS)-3,6-diisobutyl-1-((E)-3-(pyridin-2-yl)acryloyl)-8-(1-(pyrimidin-2-ylmethyl)piperidin-4-yl)tetrahydropyrazino[2,1-c][1,2,4]oxadiazine-4,7(3H,6H)-dione] | – | – | – | – | 76%
CC(C)C[C@H]1ON(C(=O)/C=C/c2nc3c(s2)CCCC3)[C@H]2CN(CCC(N)=O)C(=O)[C@H](CC(C)C)N2C1=O [ID-37, 3-((3R,6S,9aS)-3,6-diisobutyl-4,7-dioxo-1-((E)-3-(4,5,6,7-tetrahydrobenzo[d]thiazol-2-yl)acryloyl)hexahydropyrazino[2,1-c][1,2,4]oxadiazin-8 (1H)-yl)propanamide] | 4.7 µM | – | – | – | 95.8%
CC(C)C[C@H]1ON(C(=O)/C=C\c2ccccc2)[C@H]2CN(C3CCN(C)CC3)C(=O)[C@H](CC(C)C)N2C1=O [ID-38, (3R,6S,9aS)-3,6-diisobutyl-8-(1-methylpiperidin-4-yl)-1-((Z)-3-phenylacryloyl)tetrahydropyrazino[2,1-c] [1,2,4] oxadiazine-4,7 (3H, 6H)-dione] | 8 µM | – | – | – | 82.6%
CC(C)C[C@H]1ON(C(=O)/C=C/c2ccccc2)[C@H]2CN(C3CCN(C)CC3)C(=O)[C@H](CC(C)C)N2C1=O [ID-39, (3R,6S,9aS)-1-cinnamoyl-3,6-diisobutyl-8-(1-methylpiperidin-4-yl)tetrahydropyrazino[2,1-c][1,2,4]oxadiazine-4,7 (3H, 6H)-dione] | 8.9 µM | – | – | – | 80.8%
CC(C)C[C@H]1ON(C(=O)/C=C/c2ccccn2)[C@H]2CN(C3CCN(C4CCN(C(C)C)CC4)CC3)C(=O)[C@H](CC(C)C)N2C1=O [ID-40, (3R,6S,9aS)-3,6-diisobutyl-8-(1′-isopropyl-[1,4′-bipiperidin]-4-yl)-1-((E)-3-(pyridin-2-yl)acryloyl)tetrahydropyrazino[2,1-c][1,2,4]oxadiazine-4,7(3H,6H)-dione] | 4 µM | – | – | – | 102%
CC(=O)N1CCC(N2CCC(N3C[C@@H]4N(C(=O)/C=C/c5ccccn5)O[C@H](CC(C)C)C(=O)N4[C@@H](CC(C)C)C3=O)CC2)CC1 [ID-41, (3R,6S,9aS)-8-(1′-acetyl-[1,4′-bipiperidin]-4-yl)-3,6-diisobutyl-1-((E)-3-(pyridin-2-yl)acryloyl)tetrahydropyrazino[2,1-c][1,2,4]oxadiazine-4,7(3H,6H)-dione] | 6.3 µM | – | – | – | 98.5%
